In brackets after ≈: the same amount, converted by molar mass. Activity calls are given as the source filed them. No cut-off for these calls is given here.
What was measured:
Staphylococcus aureus [1] = test: Antibacterial activity against Staphylococcus aureus after 24 hrs by twofold serial dilution method; assay type: functional
Streptococcus = test: Antibacterial activity against beta-Hemolytic streptococcus after 24 hrs by twofold serial dilution method; assay type: functional
Vibrio cholerae = test: Antibacterial activity against Vibrio cholerae after 24 hrs by twofold serial dilution method; assay type: functional
Escherichia coli [2] = test: Antibacterial activity against Escherichia coli after 24 hrs by twofold serial dilution method; assay type: functional
Pseudomonas aeruginosa = test: Antibacterial activity against Pseudomonas aeruginosa after 24 hrs by twofold serial dilution method; assay type: functional
Aspergillus flavus [3] = test: Antifungal activity against Aspergillus flavus after 72 to 96 hrs by twofold serial dilution method; assay type: functional
Candida albicans = test: Antifungal activity against Candida albicans after 72 to 96 hrs by twofold serial dilution method; assay type: functional
Candida [4] = test: Antifungal activity against Candida 6 after 72 to 96 hrs by twofold serial dilution method; assay type: functional
Candida [5] = test: Antifungal activity against Candida 51 after 72 to 96 hrs by twofold serial dilution method; assay type: functional
Staphylococcus aureus [6] = test: Antibacterial activity against Staphylococcus aureus at 200 ug/ml after 24 hrs by twofold serial dilution method; assay type: functional, organism-based
Candida [7] = test: Antifungal activity against Candida 51 at 200 ug/ml after 72 to 96 hrs by twofold serial dilution method; assay type: functional, organism-based
Aspergillus flavus [8] = test: Antifungal activity against Aspergillus flavus at 200 ug/ml after 72 to 96 hrs by twofold serial dilution method; assay type: functional, organism-based
Escherichia coli [9] = test: Antibacterial activity against Escherichia coli at 200 ug/ml after 24 hrs by twofold serial dilution method; assay type: functional, organism-based

O=C1CNC(=S)N1N=C1CC(c2ccc(F)cc2)NC(c2ccc(F)cc2)C1 (configuration not stated)
MIC (Staphylococcus aureus [1]): 50 µg/mL (≈ 125 µM)
MIC (Streptococcus): 6.25 µg/mL (≈ 15.6 µM)
MIC (Vibrio cholerae): 6.25 µg/mL (≈ 15.6 µM)
MIC (Escherichia coli [2]): 12.5 µg/mL (≈ 31.2 µM)
MIC (Pseudomonas aeruginosa): 6.25 µg/mL (≈ 15.6 µM)
MIC (Aspergillus flavus [3]): 12.5 µg/mL (≈ 31.2 µM)
MIC (Candida albicans): 50 µg/mL (≈ 125 µM)
MIC (Candida [4]): 50 µg/mL (≈ 125 µM)
MIC (Candida [5]): 50 µg/mL (≈ 125 µM)

COc1ccc(C2C/C(=N\N3C(=O)CNC3=S)C(C)C(c3ccc(OC)cc3)N2)cc1 (configuration not stated)
MIC (Staphylococcus aureus [1]): 50 µg/mL (≈ 114 µM)
MIC (Streptococcus): 25 µg/mL (≈ 57 µM)
MIC (Vibrio cholerae): 25 µg/mL (≈ 57 µM)
MIC (Escherichia coli [2]): 100 µg/mL (≈ 228 µM)
MIC (Pseudomonas aeruginosa): 25 µg/mL (≈ 57 µM)
MIC (Aspergillus flavus [3]): 12.5 µg/mL (≈ 28.5 µM)
MIC (Candida albicans): 50 µg/mL (≈ 114 µM)
MIC (Candida [4]): 12.5 µg/mL (≈ 28.5 µM)
MIC (Candida [5]): 12.5 µg/mL (≈ 28.5 µM)

O=C1CNC(=S)N1N=C1CC(c2ccccc2)NC(c2ccccc2)C1 (configuration not stated)
MIC (Staphylococcus aureus [1]): 100 µg/mL (≈ 274 µM)
MIC (Streptococcus): 50 µg/mL (≈ 137 µM)
MIC (Vibrio cholerae): 50 µg/mL (≈ 137 µM)
MIC (Escherichia coli [2]): 50 µg/mL (≈ 137 µM)
MIC (Pseudomonas aeruginosa): 50 µg/mL (≈ 137 µM)
MIC (Aspergillus flavus [3]): 12.5 µg/mL (≈ 34.3 µM)
MIC (Candida albicans): 12.5 µg/mL (≈ 34.3 µM)
MIC (Candida [4]): 50 µg/mL (≈ 137 µM)
MIC (Candida [5]): 100 µg/mL (≈ 274 µM)

O=C1CNC(=S)N1N=C1CC(c2ccc(Cl)cc2)NC(c2ccc(Cl)cc2)C1 (configuration not stated)
MIC (Staphylococcus aureus [1]): 50 µg/mL (≈ 115 µM)
MIC (Streptococcus): 6.25 µg/mL (≈ 14.4 µM)
MIC (Vibrio cholerae): 6.25 µg/mL (≈ 14.4 µM)
MIC (Escherichia coli [2]): 12.5 µg/mL (≈ 28.8 µM)
MIC (Pseudomonas aeruginosa): 6.25 µg/mL (≈ 14.4 µM)
MIC (Aspergillus flavus [3]): 50 µg/mL (≈ 115 µM)
MIC (Candida albicans): 50 µg/mL (≈ 115 µM)
MIC (Candida [4]): 12.5 µg/mL (≈ 28.8 µM)
MIC (Candida [5]): 25 µg/mL (≈ 57.7 µM)

CC1/C(=N/N2C(=O)CNC2=S)CC(c2ccc(F)cc2)NC1c1ccc(F)cc1 (configuration not stated)
MIC (Staphylococcus aureus [1]): 6.25 µg/mL (≈ 15.1 µM)
MIC (Streptococcus): 12.5 µg/mL (≈ 30.2 µM)
MIC (Vibrio cholerae): 12.5 µg/mL (≈ 30.2 µM)
MIC (Escherichia coli [2]): 12.5 µg/mL (≈ 30.2 µM)
MIC (Pseudomonas aeruginosa): 6.25 µg/mL (≈ 15.1 µM)
MIC (Aspergillus flavus [3]): 6.25 µg/mL (≈ 15.1 µM)
MIC (Candida albicans): 6.25 µg/mL (≈ 15.1 µM)
MIC (Candida [4]): 12.5 µg/mL (≈ 30.2 µM)
MIC (Candida [5]): 6.25 µg/mL (≈ 15.1 µM)

Cc1ccc(C2CC(=NN3C(=O)CNC3=S)CC(c3ccc(C)cc3)N2)cc1 (configuration not stated)
MIC (Streptococcus): 100 µg/mL (≈ 255 µM)
MIC (Vibrio cholerae): 100 µg/mL (≈ 255 µM)
MIC (Escherichia coli [2]): 200 µg/mL (≈ 510 µM)
MIC (Pseudomonas aeruginosa): 25 µg/mL (≈ 63.7 µM)
MIC (Aspergillus flavus [3]): 6.25 µg/mL (≈ 15.9 µM)
MIC (Candida albicans): 12.5 µg/mL (≈ 31.8 µM)
MIC (Candida [4]): 6.25 µg/mL (≈ 15.9 µM)
MIC (Candida [5]): 6.25 µg/mL (≈ 15.9 µM)
MIC (Staphylococcus aureus [6]): inactive

Cc1ccc(C2C/C(=N\N3C(=O)CNC3=S)C(C)C(c3ccc(C)cc3)N2)cc1 (configuration not stated)
MIC (Staphylococcus aureus [1]): 25 µg/mL (≈ 61.5 µM)
MIC (Streptococcus): 50 µg/mL (≈ 123 µM)
MIC (Vibrio cholerae): 50 µg/mL (≈ 123 µM)
MIC (Escherichia coli [2]): 50 µg/mL (≈ 123 µM)
MIC (Pseudomonas aeruginosa): 50 µg/mL (≈ 123 µM)
MIC (Aspergillus flavus [3]): 12.5 µg/mL (≈ 30.7 µM)
MIC (Candida albicans): 50 µg/mL (≈ 123 µM)
MIC (Candida [4]): 6.25 µg/mL (≈ 15.4 µM)
MIC (Candida [5]): 12.5 µg/mL (≈ 30.7 µM)

CC1(C)/C(=N/N2C(=O)CNC2=S)CC(c2ccc(F)cc2)NC1c1ccc(F)cc1 (configuration not stated)
MIC (Staphylococcus aureus [1]): 12.5 µg/mL (≈ 29.2 µM)
MIC (Streptococcus): 6.25 µg/mL (≈ 14.6 µM)
MIC (Vibrio cholerae): 6.25 µg/mL (≈ 14.6 µM)
MIC (Escherichia coli [2]): 6.25 µg/mL (≈ 14.6 µM)
MIC (Pseudomonas aeruginosa): 6.25 µg/mL (≈ 14.6 µM)
MIC (Aspergillus flavus [3]): 25 µg/mL (≈ 58.3 µM)
MIC (Candida albicans): 50 µg/mL (≈ 117 µM)
MIC (Candida [4]): 50 µg/mL (≈ 117 µM)
MIC (Candida [5]): 50 µg/mL (≈ 117 µM)

Cc1ccc(C2C/C(=N\N3C(=O)CNC3=S)C(C)(C)C(c3ccc(C)cc3)N2)cc1 (configuration not stated)
MIC (Staphylococcus aureus [1]): 25 µg/mL (≈ 59.4 µM)
MIC (Streptococcus): 25 µg/mL (≈ 59.4 µM)
MIC (Vibrio cholerae): 25 µg/mL (≈ 59.4 µM)
MIC (Escherichia coli [2]): 50 µg/mL (≈ 119 µM)
MIC (Pseudomonas aeruginosa): 100 µg/mL (≈ 238 µM)
MIC (Aspergillus flavus [3]): 25 µg/mL (≈ 59.4 µM)
MIC (Candida albicans): 25 µg/mL (≈ 59.4 µM)
MIC (Candida [4]): 6.25 µg/mL (≈ 14.9 µM)
MIC (Candida [5]): 12.5 µg/mL (≈ 29.7 µM)

COc1ccc(C2CC(=NN3C(=O)CNC3=S)CC(c3ccc(OC)cc3)N2)cc1 (configuration not stated)
MIC (Staphylococcus aureus [1]): 50 µg/mL (≈ 118 µM)
MIC (Streptococcus): 100 µg/mL (≈ 236 µM)
MIC (Vibrio cholerae): 100 µg/mL (≈ 236 µM)
MIC (Escherichia coli [2]): 50 µg/mL (≈ 118 µM)
MIC (Pseudomonas aeruginosa): 100 µg/mL (≈ 236 µM)
MIC (Aspergillus flavus [3]): 12.5 µg/mL (≈ 29.4 µM)
MIC (Candida albicans): 12.5 µg/mL (≈ 29.4 µM)
MIC (Candida [4]): 6.25 µg/mL (≈ 14.7 µM)
MIC (Candida [7]): inactive

CC1(C)/C(=N/N2C(=O)CNC2=S)CC(c2ccc(Cl)cc2)NC1c1ccc(Cl)cc1 (configuration not stated)
MIC (Staphylococcus aureus [1]): 25 µg/mL (≈ 54.2 µM)
MIC (Streptococcus): 12.5 µg/mL (≈ 27.1 µM)
MIC (Vibrio cholerae): 12.5 µg/mL (≈ 27.1 µM)
MIC (Escherichia coli [2]): 50 µg/mL (≈ 108 µM)
MIC (Pseudomonas aeruginosa): 25 µg/mL (≈ 54.2 µM)
MIC (Aspergillus flavus [3]): 25 µg/mL (≈ 54.2 µM)
MIC (Candida albicans): 50 µg/mL (≈ 108 µM)
MIC (Candida [4]): 50 µg/mL (≈ 108 µM)
MIC (Candida [5]): 50 µg/mL (≈ 108 µM)

CC1/C(=N/N2C(=O)CNC2=S)CC(c2ccc(Cl)cc2)NC1c1ccc(Cl)cc1 (configuration not stated)
MIC (Staphylococcus aureus [1]): 6.25 µg/mL (≈ 14 µM)
MIC (Streptococcus): 50 µg/mL (≈ 112 µM)
MIC (Vibrio cholerae): 50 µg/mL (≈ 112 µM)
MIC (Escherichia coli [2]): 50 µg/mL (≈ 112 µM)
MIC (Pseudomonas aeruginosa): 50 µg/mL (≈ 112 µM)
MIC (Aspergillus flavus [3]): 12.5 µg/mL (≈ 27.9 µM)
MIC (Candida albicans): 50 µg/mL (≈ 112 µM)
MIC (Candida [4]): 50 µg/mL (≈ 112 µM)
MIC (Candida [5]): 12.5 µg/mL (≈ 27.9 µM)

O=C(O)c1cn(C2CC2)c2cc(N3CCNCC3)c(F)cc2c1=O [CIPROFLOXACIN]
MIC (Streptococcus): 50 µg/mL (≈ 151 µM)
MIC (Vibrio cholerae): 50 µg/mL (≈ 151 µM)
MIC (Escherichia coli [2]): 25 µg/mL (≈ 75.4 µM)

CC1(C)/C(=N/N2C(=O)CNC2=S)CC(c2ccccc2)NC1c1ccccc1 (configuration not stated)
MIC (Staphylococcus aureus [1]): 100 µg/mL (≈ 255 µM)
MIC (Streptococcus): 25 µg/mL (≈ 63.7 µM)
MIC (Vibrio cholerae): 25 µg/mL (≈ 63.7 µM)
MIC (Escherichia coli [2]): 100 µg/mL (≈ 255 µM)
MIC (Pseudomonas aeruginosa): 100 µg/mL (≈ 255 µM)
MIC (Candida albicans): 50 µg/mL (≈ 127 µM)
MIC (Candida [4]): 100 µg/mL (≈ 255 µM)
MIC (Candida [5]): 50 µg/mL (≈ 127 µM)
MIC (Aspergillus flavus [8]): inactive

COc1ccc(C2C/C(=N\N3C(=O)CNC3=S)C(C)(C)C(c3ccc(OC)cc3)N2)cc1 (configuration not stated)
MIC (Staphylococcus aureus [1]): 200 µg/mL (≈ 442 µM)
MIC (Streptococcus): 50 µg/mL (≈ 110 µM)
MIC (Vibrio cholerae): 50 µg/mL (≈ 110 µM)
MIC (Pseudomonas aeruginosa): 50 µg/mL (≈ 110 µM)
MIC (Aspergillus flavus [3]): 6.25 µg/mL (≈ 13.8 µM)
MIC (Candida albicans): 12.5 µg/mL (≈ 27.6 µM)
MIC (Candida [4]): 25 µg/mL (≈ 55.2 µM)
MIC (Candida [5]): 6.25 µg/mL (≈ 13.8 µM)
MIC (Escherichia coli [9]): inactive

OC(Cn1cncn1)(Cn1cncn1)c1ccc(F)cc1F [FLUCONAZOLE]
MIC (Aspergillus flavus [3]): 50 µg/mL (≈ 163 µM)
MIC (Candida albicans): 50 µg/mL (≈ 163 µM)
MIC (Candida [4]): 25 µg/mL (≈ 81.6 µM)
MIC (Candida [5]): 25 µg/mL (≈ 81.6 µM)

CC1/C(=N/N2C(=O)CNC2=S)CC(c2ccccc2)NC1c1ccccc1 (configuration not stated)
MIC (Staphylococcus aureus [1]): 200 µg/mL (≈ 528 µM)
MIC (Streptococcus): 100 µg/mL (≈ 264 µM)
MIC (Vibrio cholerae): 100 µg/mL (≈ 264 µM)
MIC (Escherichia coli [2]): 50 µg/mL (≈ 132 µM)
MIC (Pseudomonas aeruginosa): 50 µg/mL (≈ 132 µM)
MIC (Aspergillus flavus [3]): 50 µg/mL (≈ 132 µM)
MIC (Candida albicans): 50 µg/mL (≈ 132 µM)
MIC (Candida [4]): 50 µg/mL (≈ 132 µM)
MIC (Candida [5]): 50 µg/mL (≈ 132 µM)
